Test results published in publication PMC4585333, “Novel Regulator of Acylated Ghrelin, CF801, Reduces Weight Gain, Rebound Feeding after a Fast, and Adiposity in Mice” (Frontiers in Endocrinology, 2015).

How the values were obtained:
Assay type in all cases: in vivo, male C57BL/6J mice
[1] = EchoMRI carcass body composition
Experimental: (§1) A second cohort of mice (n = 30) was acclimated to the laboratory conditions for 1 week prior to the onset of the experiment. Mice were housed individually and their body weight and food intake was recorded daily for a baseline period of 10 days. Given that ghrelin augments the intake of preferred diets ([28]), all mice received ad libitum access to a high-fat diet (60% of calories coming from fat), in addition to regular chow, to determine if CF801 altered dietary preference. Both chow and high-fat diet pellets were provided daily to mice ad libitum in pre-weighed amounts. Mice were then assigned to four different groups: non-injected control (NIC; n = 7), vehicle (0.9% saline) (VEH; n = 7), low-dose CF801 (11 μmol⋅kg^−1 – LD; n = 8) and high-dose CF801 (22 μmol⋅kg^−1 – HD; n = 8). Each day at 09:00 hours, mice were weighed and their food intake (both chow and high-fat diet) was recorded. After this, mice received an intraperitoneal injection of either CF801 or saline (except for the non-injected controls). Following the 13-day treatment period, half the animals in each group were sacrificed, while the remaining mice were allowed to recover from treatment. […] At this point, the remaining mice were sacrificed. Carcasses from all animals were frozen and stored at −80°C until they were scanned for body composition analyses. Immediately prior to analysis, all carcasses were thawed to room temperature and weighed in order to obtain measures relative to total carcass mass. EchoMRI carcass analyses were performed at Health Canada, Nutrition Research Division facilities using the EchoMRI-1100 (System ID EF-020) scanner. Each carcass was analyzed separately and measurements of total fat mass, total lean mass, and total water weight were obtained for each mouse.
Given these changes in metabolic efficiency as well as the decrease in RER observed in the calorimetry experiment, we hypothesized that CF801 treatment would result in less accumulation of fat. To determine if this was the case, we conducted EchoMRI analyses on every animal post-mortem to identify differences in body composition as a function between groups. […] Furthermore, there was a significant treatment effect on the fat mass:total mass ratio following the recovery period [F(1,15) = 9.245, p < 0.05; partial eta^2 = 0.716].

[2] = Indirect calorimetry, respiratory exchange ratio; conditions: 22 μmol⋅kg^−1 i.p. daily for a week, 4-h period following injection, n = 5 vs saline n = 5; t(5) = 3.457, p < 0.05
Experimental: Mice (n = 10) were housed individually and their body weight and food intake was recorded daily for a baseline period of 10 days. As in Experiment 1, all mice had ad libitum access to regular lab chow and a high-fat diet (60% of calories coming from fat). At the end of the baseline, mice were housed in metabolic chambers (TSE Systems) for 48 h to examine metabolic rate using indirect calorimetry prior to the onset of the drug treatment. While indirect calorimetry measures were obtained throughout the 48-h period, we only analyzed measurements in the last 24 h to allow the animals to adjust to the chambers. Mice were then assigned to one of two groups: vehicle (0.9% saline) (VEH; n = 5) and CF801 (22 μmol⋅kg^−1; n = 5). Each day at 09:00 hours, mice were weighed and their food intake (both chow and high-fat diet) was recorded, and then received an intraperitoneal injection of either CF801 or saline. Drug treatment continued for 16 days. On the eighth day, mice were again placed in the metabolic chambers for 48 h while still being monitored and injected with their respective treatment to determine differences in metabolism produced by the drug.
Given that treatment with CF801 decreased weight gain without altering caloric intake, we reasoned that perhaps CF801 was exerting its effects at the metabolic level. […]

Metabolic efficiency = conditions: treatment period
Experimental: as §1
Metabolic efficiency, defined as the amount of weight gained per calorie of energy consumed during a given time period, was calculated for each mouse during the baseline and treatment period. There were no differences in metabolic efficiency between any groups during the baseline period (data not shown).

[3] = Blood glucose in trunk blood; conditions: after 4 days i.p. treatment, fast and refeeding, F(1,15) = 1.105, p > 0.05
Experimental: Mice (n = 16) were singly housed and given free access to water and regular chow for a 4-day baseline period. After this, mice were assigned to one of three groups: vehicle (n = 5), CF801 low dose (n = 5; 11 μmol⋅kg^−1 – LD), or CF801 high dose (n = 6; 22 μmol⋅kg^−1 – HD). These mice were injected intraperitoneally once a day for 4 days starting at 10:00 a.m. Following 4 days of treatment, animals were tested for rebound feeding after a fast. To do this, we removed the food from each cage 1 h before lights out (6:00 p.m.), and food was returned to the cage the following day 1 h after the last injection. Food intake was then monitored every hour for 4 h to determine the effects of CF801 on rebound feeding. Animals were then sacrificed by rapid decapitation to collect trunk blood and other tissues. Two samples were lost during sample collection, so the number of samples used to measure acylated ghrelin was reduced to n = 14.
Following the treatment or recovery periods, mice were killed by rapid decapitation and plasma and tissue samples were collected. To measure glucose levels, glucose strips attached to a Contour glucose meter (Bayer Corp., Pittsburgh, PA, USA) were dipped in trunk blood collected before being centrifuged. […] Plasma acylated ghrelin for all animals was measured using an ELISA kit (Millipore).

GSAFLSPEHQRK KRRQRRR-NH2 [CF801]
fat mass, low dose, after recovery ([1]; 11 μmol⋅kg^−1 i.p., 2 weeks after last treatment, vs VEH and NIC, p < 0.05): lower fat mass than mice in the VEH and NIC
fat mass:lean mass ratio, low dose vs NIC ([1]; 11 μmol⋅kg^−1 i.p., following recovery period, p < 0.05): significantly lower fat mass:lean mass ratio
fat mass:lean mass ratio, low dose vs VEH ([1]; 11 μmol⋅kg^−1 i.p., following recovery period, p = 0.058): tended to show a reduction in fat mass:lean mass ratio
fat mass:total mass ratio, low dose vs NIC and VEH ([1]; 11 μmol⋅kg^−1 i.p., following recovery period, p's < 0.05, overall F(1,15) = 9.245, partial eta^2 = 0.716): significantly lower fat mass:total mass ratios
fat mass, low dose, after treatment period ([1]; 11 μmol⋅kg^−1 i.p., vs VEH, end of treatment, p > 0.05): lower fat mass compared to VEH-treated animals, but this was not statistically significant
total fat mass, high dose, after recovery ([1]; 22 μmol⋅kg^−1 i.p., 2 weeks after treatment terminated, F(1,15) = 15.18, p < 0.05, partial eta^2 = 0.805): this decrease was more evident
fat mass:lean mass ratio, high dose vs NIC and VEH ([1]; 22 μmol⋅kg^−1 i.p., following recovery period, p < 0.05, overall F(1,15) = 7.735, partial eta^2 = 0.678): significantly lower fat mass:lean mass ratio
fat mass:total mass ratio, high dose vs NIC and VEH ([1]; 22 μmol⋅kg^−1 i.p., following recovery period, p's < 0.05, overall F(1,15) = 9.245, partial eta^2 = 0.716): significantly lower fat mass:total mass ratios
total fat mass, high dose, after treatment period ([1]; 22 μmol⋅kg^−1 i.p., vs VEH, right after 13-day treatment, F(1,14) = 3.54, p > 0.05 as printed, partial eta^2 = 0.515): significantly lower
fat mass:lean mass ratio, high dose vs low dose ([1]; 22 vs 11 μmol⋅kg^−1, following recovery period, p > 0.05): no different than animals treated with LD CF801
lean body mass ([1]; between groups, p > 0.05): no differences between the groups
water mass ([1]; between groups, p > 0.05): no differences between the groups
respiratory exchange ratio (RER) [2]: significant decrease in RER
metabolic efficiency, low dose vs NIC and VEH (Metabolic efficiency; 11 μmol⋅kg^−1 i.p., p < 0.05, overall F(1,29) = 9.086, partial eta^2 = 0.522): significantly lower metabolic efficiencies
metabolic efficiency, high dose vs NIC and VEH (Metabolic efficiency; 22 μmol⋅kg^−1 i.p., p < 0.05, overall F(1,29) = 9.086, partial eta^2 = 0.522): significantly lower metabolic efficiencies
metabolic efficiency, high dose vs low dose (Metabolic efficiency; 22 vs 11 μmol⋅kg^−1 i.p., p > 0.05): no different than animals receiving LD CF801
blood glucose concentrations [3]: No significant differences
